Data as given in ChEMBL document CHEMBL5584347, “Development of Nitric Oxide Releasing Oxoisoaporphines with Antidepressant Activities by Simultaneously Regulating MAO-A and SERT” (J Med Chem, 2024).
Calls of active or inactive are those of the source. The rule behind the calls is not given here.

Columns and labels:
[1] = system: PC-12; assay: Neuroprotective activity against corticosterone-induced cell injury in rat PC-12 cells assessed as increase in cell viability at 0.1 to 1 uM incubated for 24 hrs by CCK8 assay; format: functional, cell-based; details: dose 0.1-1 µM
[2] = Cytotoxicity against human SH-SY5Y cells incubated for 24 hrs by MTT assay; format: toxicity, cell-based
[3] = Cytotoxicity against human L02 cells incubated for 24 hrs by MTT assay; format: toxicity, cell-based
[4] = Cytotoxicity against rat PC-12 cells incubated for 24 hrs by MTT assay; format: toxicity, cell-based
[5] = system: Danio rerio; assay: Antidepressant activity in reserpine-induced depressive zebrafish model assessed as increase in speed of movement at 1 uM preadministered with reserpine for 40 mins followed by compound administration and measured after 7 days by open field test; format: functional, organism-based; details: time 7.0 day
[6] = system: Danio rerio; assay: Antidepressant activity in reserpine-induced depressive zebrafish model assessed as reduction in immobility time at 1 uM preadministered with reserpine for 40 mins followed by compound administration and measured after 7 days by open field test; format: functional, organism-based; details: time 7.0 day
[7] = system: Danio rerio; assay: Antidepressant activity in reserpine-induced depressive zebrafish model assessed as increase in time spend in upper part at 1 uM preadministered with reserpine for 40 mins followed by compound administration and measured after 7 days by novel tank test; format: functional, organism-based; details: time 7.0 day
[8] = system: Danio rerio; assay: Antidepressant activity in reserpine-induced depressive zebrafish model assessed as increase in speed of movement at 1 uM preadministered with reserpine for 40 mins followed by compound administration and measured after 7 days by novel tank test; format: functional, organism-based; details: time 7.0 day
[9] = system: Mus musculus; assay: Antidepressant activity in chronic unpredictable mild stress induced depressive C57 mouse model assessed as increase in movement at 10 mg/kg administered continuously for 2 weeks post 5 weeks of chronic unpredictable mild stress by open field test; format: functional, organism-based
[10] = system: Danio rerio; assay: Antidepressant activity in reserpine-induced depressive zebrafish model assessed as increase in total distance traveled at 1 uM preadministered with reserpine for 40 mins followed by compound administration and measured after 7 days by open field test; format: functional, organism-based; details: time 7.0 day
[11] = system: Mus musculus; assay: Antidepressant activity in reserpine induced depressive mouse model assessed as 5-HT level in brain at 10 mg/kg preadministered with reserpine for 3 days followed by compound addition from day 4 to 10 by LC-MS analysis (reference value: 186.46 ng/ml); format: functional; details: time 7 day
[12] = system: Mus musculus; assay: Antidepressant activity in chronic unpredictable mild stress induced depressive C57 mouse model assessed as increase in total distance traveled at 10 mg/kg administered continuously for 2 weeks post 5 weeks of chronic unpredictable mild stress by open field test; format: functional, organism-based
[13] = system: Danio rerio; assay: Antidepressant activity in reserpine-induced depressive zebrafish model assessed as increase in total distance traveled at 1 uM preadministered with reserpine for 40 mins followed by compound administration and measured after 7 days by novel tank test; format: functional, organism-based; details: time 7.0 day
[14] = system: Mus musculus; assay: Upregulation of 5-HT level in mouse at 10 mg/kg in presence of oxoisoaporphines; format: functional, organism-based
[15] = system: Mus musculus; assay: Upregulation of 5-HT level in mouse at 10 mg/kg in presence of isosorbide mononitrate; format: functional, organism-based

SMILES	Activity [1]	IC50 at 24 h [2] [µM]	IC50 at 24 h [3] [µM]	IC50 at 24 h [4] [µM]	also measured
O=C1c2ccccc2-c2nccc3cc(OCCCCO[N+](=O)[O-])cc1c23	Active	> 100	> 100	> 10	–
O=C1c2ccccc2-c2nccc3cc(OCCCCCCO[N+](=O)[O-])cc1c23	Active	> 100	> 100	> 10	–
O=C1c2ccccc2-c2nccc3cc(OCCCCCCOc4no[n+]([O-])c4S(=O)(=O)c4ccccc4)cc1c23	inactive	> 100	> 100	> 10	–
O=C1c2ccccc2-c2nccc3cc(OCCCCCOc4no[n+]([O-])c4S(=O)(=O)c4ccccc4)cc1c23	inactive	> 100	> 100	> 10	–
CNCCC(Oc1ccc(C(F)(F)F)cc1)c1ccccc1 (configuration not stated) [FLUOXETINE]	–	–	–	–	Activity [5]: Active; Activity [6]: Active; Activity [7]: Active; Activity [8]: Active; Activity [9]: Active; Activity [10]: Active; Activity [11]: 223.45 ng/mL; Activity [12]: Active; Activity [13]: Active
O=C1c2ccccc2-c2nccc3cc(OCCO[N+](=O)[O-])cc1c23	Active	> 100	> 100	> 10	–
O=C1c2ccccc2-c2nccc3cc(OCCCCCO[N+](=O)[O-])cc1c23	Active	> 100	> 100	> 10	–
O=C1c2ccccc2-c2nccc3cc(OCCCOc4no[n+]([O-])c4S(=O)(=O)c4ccccc4)cc1c23	inactive	> 100	> 100	> 10	–
O=C1c2ccccc2-c2nccc3cc(OCCOc4no[n+]([O-])c4S(=O)(=O)c4ccccc4)cc1c23	inactive	> 100	> 100	> 10	–
O=[N+]([O-])O[C@@H]1CO[C@H]2[C@@H]1OC[C@@H]2O	–	–	–	–	Activity [14]: Active
O=C1c2ccccc2-c2nccc3cc(OCCCCOc4no[n+]([O-])c4S(=O)(=O)c4ccccc4)cc1c23	inactive	> 100	> 100	> 10	–
O=C1c2ccccc2-c2nccc3cccc1c23	–	–	–	–	Activity [15]: Active
